# Measured values: the supplement of paper PMC10307832
# Legend:
# Experiment in all cases: relative viability (nuclei count vs DMSO), 5 days (fraction); higher = more cells survive
# [1] = test system: CAL-12T
# Summary of the method: (§1)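 Lung cancer cell lines were seeded in 1536-well plates and dosed by pin tool the next day, with either a single drug or a fixed anchor-drug dose combined with five library-drug doses (not always all listed) spaced in √10 steps. Five days later, one step fixed the cells and stained their nuclei (final 0.05% Triton X-100, 1% formaldehyde, 1 ug/ml Hoechst), and nuclei were counted on 4× images. Relative viability is the nuclei count in treated wells divided by the count in vehicle wells, and each value is the median of duplicate plates.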
# [2] = test system: NCI-H596
# Summary of the method: as §1
# [3] = test system: 201T
# Summary of the method: as §1
# [4] = test system: PC-3 [JPC-3]
# Summary of the method: as §1
# [5] = test system: NCI-H1650
# Summary of the method: as §1
# [6] = test system: NCI-H727
# Summary of the method: as §1
# [7] = test system: NCI-H520
# Summary of the method: as §1
# [8] = test system: NCI-H460
# Summary of the method: as §1
# [9] = test system: NCI-H1944
# Summary of the method: as §1
# [10] = test system: NCI-H650
# Summary of the method: as §1
# [11] = test system: NCI-H2087
# Summary of the method: as §1
# [12] = test system: A-427
# Summary of the method: as §1
# [13] = test system: BEN
# Summary of the method: as §1
# [14] = test system: H3255
# Summary of the method: as §1
# [15] = test system: NCI-H1651
# Summary of the method: as §1
# [16] = test system: ABC-1
# Summary of the method: as §1
# [17] = test system: LCLC-97TM1
# Summary of the method: as §1
# [18] = test system: NCI-H1915
# Summary of the method: as §1
# [19] = test system: NCI-H2023
# Summary of the method: as §1
# [20] = test system: NCI-H661
# Summary of the method: as §1
# [21] = test system: LC-2-ad
# Summary of the method: as §1
# [22] = test system: NCI-H441
# Summary of the method: as §1
smiles,measurement,setting,value
O=c1cc(-c2cccc3c2Sc2ccccc2S3)oc(N2CCOCC2)c1 + O=C(CCCCCCC(=O)Nc1ccccc1)NO [Vorinostat] (partner 1 µM),relative viability,[1]; first compound 0.08 µM,0.677
same,relative viability,[1]; first compound 0.253 µM,0.782
same,relative viability,[1]; first compound 0.8 µM,0.765
same,relative viability,[1]; first compound 2.53 µM,0.799
same,relative viability,[1]; first compound 8 µM,0.699
same,relative viability,[2]; first compound 0.08 µM,0.51
same,relative viability,[2]; first compound 0.253 µM,0.749
same,relative viability,[2]; first compound 0.8 µM,0.585
same,relative viability,[2]; first compound 2.53 µM,0.575
same,relative viability,[2]; first compound 8 µM,0.717
same,relative viability,[3]; first compound 0.08 µM,0.919
same,relative viability,[3]; first compound 0.253 µM,1.05
same,relative viability,[3]; first compound 0.8 µM,0.976
same,relative viability,[3]; first compound 2.53 µM,0.912
same,relative viability,[3]; first compound 8 µM,0.884
same,relative viability,[4]; first compound 0.08 µM,0.579
same,relative viability,[4]; first compound 0.253 µM,0.788
same,relative viability,[4]; first compound 0.8 µM,0.769
same,relative viability,[4]; first compound 2.53 µM,0.79
same,relative viability,[4]; first compound 8 µM,0.851
same,relative viability,[5]; first compound 0.08 µM,0.535
same,relative viability,[5]; first compound 0.253 µM,0.643
same,relative viability,[5]; first compound 0.8 µM,0.602
same,relative viability,[5]; first compound 2.53 µM,0.502
same,relative viability,[5]; first compound 8 µM,0.556
same,relative viability,[6]; first compound 0.08 µM,1.01
same,relative viability,[6]; first compound 0.253 µM,1.29
same,relative viability,[6]; first compound 2.53 µM,1.09
same,relative viability,[6]; first compound 8 µM,1.24
same,relative viability,[7]; first compound 0.08 µM,0.704
same,relative viability,[7]; first compound 0.253 µM,0.856
same,relative viability,[7]; first compound 0.8 µM,0.741
same,relative viability,[7]; first compound 2.53 µM,0.787
same,relative viability,[7]; first compound 8 µM,0.648
same,relative viability,[8]; first compound 0.08 µM,0.892
same,relative viability,[8]; first compound 0.253 µM,1.49
same,relative viability,[8]; first compound 0.8 µM,0.772
same,relative viability,[8]; first compound 2.53 µM,0.692
same,relative viability,[8]; first compound 8 µM,1.04
same,relative viability,[9]; first compound 0.08 µM,0.58
same,relative viability,[9]; first compound 0.253 µM,0.586
same,relative viability,[9]; first compound 0.8 µM,0.513
same,relative viability,[9]; first compound 2.53 µM,0.544
same,relative viability,[9]; first compound 8 µM,0.596
same,relative viability,[10]; first compound 0.08 µM,0.473
same,relative viability,[10]; first compound 0.253 µM,0.478
same,relative viability,[10]; first compound 0.8 µM,0.393
same,relative viability,[10]; first compound 2.53 µM,0.345
same,relative viability,[10]; first compound 8 µM,0.458
same,relative viability,[11]; first compound 0.08 µM,0.862
same,relative viability,[11]; first compound 0.253 µM,0.757
same,relative viability,[11]; first compound 0.8 µM,1.09
same,relative viability,[11]; first compound 2.53 µM,0.727
same,relative viability,[11]; first compound 8 µM,0.917
same,relative viability,[12]; first compound 0.08 µM,0.863
same,relative viability,[12]; first compound 0.253 µM,0.931
same,relative viability,[12]; first compound 0.8 µM,0.897
same,relative viability,[12]; first compound 2.53 µM,0.834
same,relative viability,[12]; first compound 8 µM,0.829
same,relative viability,[13]; first compound 0.08 µM,0.521
same,relative viability,[13]; first compound 0.253 µM,0.645
same,relative viability,[13]; first compound 0.8 µM,0.594
same,relative viability,[13]; first compound 2.53 µM,0.59
same,relative viability,[13]; first compound 8 µM,0.629
same,relative viability,[14]; first compound 0.08 µM,0.811
same,relative viability,[14]; first compound 0.253 µM,0.78
same,relative viability,[14]; first compound 0.8 µM,0.805
same,relative viability,[14]; first compound 2.53 µM,0.878
same,relative viability,[14]; first compound 8 µM,0.896
same,relative viability,[15]; first compound 0.08 µM,0.585
same,relative viability,[15]; first compound 0.253 µM,0.638
same,relative viability,[15]; first compound 0.8 µM,0.571
same,relative viability,[15]; first compound 2.53 µM,0.519
same,relative viability,[15]; first compound 8 µM,0.578
same,relative viability,[16]; first compound 0.08 µM,1.13
same,relative viability,[16]; first compound 0.253 µM,1.1
same,relative viability,[16]; first compound 0.8 µM,1.24
same,relative viability,[16]; first compound 2.53 µM,1.15
same,relative viability,[16]; first compound 8 µM,0.972
same,relative viability,[17]; first compound 0.08 µM,0.638
same,relative viability,[17]; first compound 0.253 µM,0.927
same,relative viability,[17]; first compound 0.8 µM,0.803
same,relative viability,[17]; first compound 2.53 µM,0.602
same,relative viability,[17]; first compound 8 µM,1.06
same,relative viability,[18]; first compound 0.08 µM,0.549
same,relative viability,[18]; first compound 0.253 µM,0.492
same,relative viability,[18]; first compound 0.8 µM,0.592
same,relative viability,[18]; first compound 2.53 µM,0.517
same,relative viability,[18]; first compound 8 µM,0.562
same,relative viability,[19]; first compound 0.08 µM,0.707
same,relative viability,[19]; first compound 0.253 µM,0.752
same,relative viability,[19]; first compound 0.8 µM,0.718
same,relative viability,[19]; first compound 2.53 µM,0.583
same,relative viability,[19]; first compound 8 µM,0.451
same,relative viability,[20]; first compound 0.08 µM,0.801
same,relative viability,[20]; first compound 0.253 µM,0.808
same,relative viability,[20]; first compound 0.8 µM,0.807
same,relative viability,[20]; first compound 2.53 µM,0.734
same,relative viability,[20]; first compound 8 µM,0.789
same,relative viability,[21]; first compound 0.08 µM,0.683
same,relative viability,[21]; first compound 0.253 µM,0.835
same,relative viability,[21]; first compound 0.8 µM,0.684
same,relative viability,[21]; first compound 2.53 µM,0.695
same,relative viability,[21]; first compound 8 µM,0.69
same,relative viability,[22]; first compound 0.08 µM,0.921
same,relative viability,[22]; first compound 0.253 µM,1.01
same,relative viability,[22]; first compound 0.8 µM,1.14
same,relative viability,[22]; first compound 2.53 µM,0.838
same,relative viability,[22]; first compound 8 µM,0.935
